Measurements: paper PMC12040169 (PLOS Biology, 2025)

Assay: in vitro
Settings: human, hela cells, % viability

SMILES	viability at 28.5 h, 10 µM [%]	viability at 28.5 h, 10 µM (bulk resorufin, single well) [%]
COc1ccc2c(c1)sc1ncc(C#N)n12 [CBK016716]	87.9	
CC(C)c1c(N)nc(SCc2ccccc2)nc1Cl [CBK016721]	123	
CC(C)(C)OC(=O)N(CCCN1CCN(c2ccc(F)cc2)CC1)c1ccccc1 [CBK016723]	89.2	
CCN(CC)CCOC1CCc2ccccc2CC1 [CBK016730C]	96.7	
O=c1[nH]c2ccncc2c2ccccc12 [CBK016740C]	92	
C[C@@H]1CN(C(=O)c2cc3c(C(=O)OC(C)(C)C)ncn3c3ccc(Cl)cc23)C[C@H](C)N1 [CBK016744]	115	
CSc1[nH]nc(N)c1-c1ccc([N+](=O)[O-])cc1 [CBK016751]	88	
CC(C)(C)c1cc(N)c(C(N)=O)s1 [CBK016752]	91.3	
c1ncn(C2CCCCC2)c1C1CCCCC1 [CBK016758]	101	
CCC(Cc1ccccc1C)c1cc(O)c(C(c2ccccc2)C2CC2)c(=O)o1 (stereo not shown) [CBK016783]	98.3	
CC(C)Nc1cccnc1N(C)C1CCN(C(=O)c2cc(Br)c[nH]2)CC1 [CBK016797]	105	
c1nc(N2CCOCC2)c2cn[nH]c2n1 [CBK016811]	86.3	
CCCCC(Sc1nc(N)cc(Cl)n1)c1cc(C)ccn1 (stereo not shown) [CBK016827]	106	
CC(C)(C)OC(=O)N1CCN(CCOc2ccc(NC(=O)OCc3ccccc3)cc2F)CC1 [CBK016854]	108	
CC(C)CNc1n[nH]c(=S)s1 [CBK016865]	95.9	
O=C1O[C@@H](CO)CN1c1ccc(N(Cc2ccccc2)Cc2ccccc2)c(F)c1 [CBK016873]	103	
Cc1ccc(Cl)cc1NC(=O)OCCN(C)C [CBK016906]	98.3	
NS(=O)(=O)c1ccccc1NC(=O)NC1CCCCC1 [CBK016919]	93.4	
O=C(NO)Nc1ccc(Cl)c(Cl)c1 [CBK016929]		96.3
FC(F)(F)c1cc(NCCC2CCCCN2)cc(C(F)(F)F)c1 (stereo not shown) [CBK016963]	88.6	
O=C(Nc1ccccc1)Nc1ccc([N+](=O)[O-])cc1 [CBK016975]	99.6	
CSc1[nH]nc(-c2ccc(C(C)(C)C)cc2)c1C#N [CBK016999]	108	
CCCSc1scc2c1-c1n[nH]cc1CC2 [CBK017006]	99.3	
O=S(=O)(Nc1cccc2nsnc12)c1cccs1 [CBK017018]	75.6	
NCCSc1cc(C(F)(F)F)nc2ccccc12 [CBK017035]	81.9	

SMILES	viability at 28.5 h, 10 µM [%]	viability at 28.5 h, 10 µM (bulk resorufin, single well) [%]
O=C(O)CC/C(=N\Nc1ccc([N+](=O)[O-])cc1)c1ccc(F)cc1 [CBK017075]	110	
CC(C)Nc1ncnc2scc(-c3cccs3)c12 [CBK017085]	85.9	
CCN(CC)CCCC(C)Nc1ccnc2cc(Cl)ccc12 (stereo not shown) [CBK017143]	85.6	
Nc1ccc2nc(-c3ccccn3)[nH]c2c1 [CBK017167]	100	
CC(C)c1c(SCCN)[nH]c2ccccc12 [CBK017265C]	96	
NC(=O)c1cc(C(=O)c2ccccc2F)c[nH]1 [CBK017284]	112	
CS(=O)(=O)c1nc(-c2ccccc2)ns1 [CBK017338]	90.6	
CC1=NN(c2cccc(S(=O)(=O)O)c2C(=O)Nc2ccccc2)C(=O)C1 [CBK017343]	98.4	
Nc1ncnc(Nc2cccc(C(F)(F)F)c2)n1 [CBK017403]	82.4	
CC(C)(C)NC(=O)N/N=C/c1[nH]ncc1Br [CBK017439]	96	
O=S(=O)(Nc1cccc(Cl)c1Cl)c1ccc(Cl)c(Cl)c1 [CBK017446]	79.2	
N#Cc1sc(NC(=O)c2cccc(Br)c2)nc1Cl [CBK017468]	45.4	
CCCSc1cc(=O)oc2ccccc12 [CBK017493]	87.3	
Nc1ccc2c(O)c(C(=O)NCc3ccc(Cl)cc3)c(=O)[nH]c2c1 [CBK017557]	91.4	
C[S+]([O-])CCn1c2ccccc2c2c(N3CCCC3)nc(N3CCCC3)nc21 (stereo not shown) [CBK017586]	91.9	
O=C(NCc1ccc(Cl)cc1)c1c(O)c2cc(NS(=O)(=O)c3ccccc3)ccc2[nH]c1=O [CBK017589]	94.4	
CC(C)(C)c1ccc2c(c1)C(CCCCN1CCCC1)(c1ccccc1)C(=O)O2 (stereo not shown) [CBK017654C]	102	
NC(=O)c1ccc2[nH]c(-c3cscn3)nc2c1 [CBK017800]	86	
COc1ccc2c(c1Br)C=C(n1ccnc1)CC2 [CBK017808]	76.9	
Oc1cccc2ccc(-n3ccnc3)nc12 [CBK017812]	79.3	
Cc1ccc(N)c(C(=O)CCC(=O)O)c1 [CBK017815C]	92.1	
COc1ccc2[nH]cc(/C=C3\C(=O)Nc4ncccc43)c2c1 [CBK017826]	88.3	
C[C@@H]1CC(=O)CCC1NC(=O)c1ccccc1 (stereo partly shown) [CBK017832]	88.4	
CN(C)c1ccc(C(=O)N2CC(=O)Nc3ccccc32)cc1 [CBK017839]	89.2	
